# Where “and” joins values, the source holds several entries; their conditions need not be identical. Equal values may be shown once. After the bases stand the sugars from the 5' end (letter, count) and the backbone: PS all phosphorothioate, else s phosphorothioate and o phosphodiester by linkage. Methylation of C is not given here. e = 2'-O-(2-methoxyethyl) (MOE); k = constrained ethyl (cEt); d = 2'-deoxy (DNA)
# Target: SOD1
# Settings: ASO
Sequence,"target mRNA inhibition (HepG2, 5 µM)","target mRNA inhibition (HepG2, 3 µM) [%]",also measured
"GTGATCATAAATCAGTTTCT (sugars e5 d10 e5, PS)",37%,,
"ACTGGTCCATTACTTTC (sugars e3 k2 d7 k2 e3, PS)",,14,
"AGGTACTTTAAAGCAAC (sugars e2 k2 d9 k2 e2, PS)",42%,,
"GGCGATCCCAATTACACCAC (sugars e5 d10 e5, linkages s1 o3 s11 o3 s1)",,,"target mRNA inhibition (A431, 0.12 µM): 0%; target mRNA inhibition (A431, 0.6 µM): 0%; target mRNA inhibition (A431, 3 µM): 0%; target mRNA inhibition (A431, 15 µM): 30%; target mRNA inhibition (HepG2, 0.222 µM): 24%; target mRNA inhibition (HepG2, 0.667 µM): 34%; target mRNA inhibition (HepG2, 2 µM): 79%; target mRNA inhibition (HepG2, 6 µM): 55%"
"AGTGCCATACAGGGTTT (sugars e3 k2 d7 k2 e3, PS)",,9,
"AAGTCACACAATTACAC (sugars e2 k2 d8 k2 e3, PS)",41%,,
"TCATAATAAGTGCCATA (sugars e2 k2 d8 k2 e3, PS)",28%,,
"CAGTTTCTCACTACAGG (sugars e2 k2 d9 k2 e2, PS)",38%,,
"GACAAGTTTAATACCCA (sugars e3 k2 d7 k2 e3, PS)",,24,
"GATCCCAATTACACCAC (sugars e2 k2 d8 k2 e3, PS)",,,"target mRNA inhibition (HepG2, 4 µM): 41%"
"GTCAGTCCTTTAATGCTTCC (sugars e5 d10 e5, PS)",34%,,
"TCTGGATAGAGGATTAA (sugars e3 k2 d7 k2 e3, PS)",,25,
"GTTTTTATTCACAGGCT (sugars e3 k2 d7 k2 e3, PS)",,10,
"CTGACAAGTTTAATACC (sugars e2 k2 d8 k2 e3, PS)",30%,,
"CCAATTACACCACAAGC (sugars e3 k2 d7 k2 e3, PS)",,29,
"TGATCATAAATCAGTTT (sugars e2 k2 d9 k2 e2, PS)",38%,,
"AATTCTGACAAGTTTAA (sugars e3 k2 d7 k2 e3, PS)",,15,
"CCCTTCAGCACGCACAC (sugars e2 k2 d8 k2 e3, PS)",,72,"target mRNA inhibition (HepG2, 0.1875 µM): 25%; target mRNA inhibition (HepG2, 0.75 µM): 22%; target mRNA inhibition (HepG2, 2 µM): 50%; target mRNA inhibition (HepG2, 4 µM): 74%; target mRNA inhibition (HepG2, 12 µM): 79%"
"GTACTTTAAAGCAACTCTGA (sugars e5 d10 e5, PS)",22%,,
"TTGGGCGATCCCAATTA (sugars e2 k2 d8 k2 e3, PS)",,,"target mRNA inhibition (HepG2, 4 µM): 14%"
"ACCCATCTGTGATTTAA (sugars e2 k2 d8 k2 e3, PS)",33%,,
"TTTTTATTCACAGGCTT (sugars e3 k2 d7 k2 e3, PS)",,31,
"TCACTACAGGTACTTTA (sugars e2 k2 d9 k2 e2, PS)",35%,,

Sequence,"target mRNA inhibition (HepG2, 5 µM)","target mRNA inhibition (HepG2, 3 µM) [%]",also measured
"TTACACCACAAGCCAAACGA (sugars e5 d10 e5, PS)",24%,,
"CTTCAATAGACACATCG (sugars e3 k2 d7 k2 e3, PS)",,9,
"CAGTGTTTAATGTTTATC (sugars e5 d8 e5, linkages s1 o3 s9 o2 s2)",,,"target mRNA inhibition (A431, 0.12 µM): 0%; target mRNA inhibition (A431, 0.6 µM): 8%; target mRNA inhibition (A431, 3 µM): 39%; target mRNA inhibition (A431, 15 µM): 52%; target mRNA inhibition (HepG2, 0.222 µM): 21%; target mRNA inhibition (HepG2, 0.667 µM): 47%; target mRNA inhibition (HepG2, 2 µM): 64%; target mRNA inhibition (HepG2, 6 µM): 84%"
"TTTATTCACAGGCTTGA (sugars e3 k2 d7 k2 e3, PS)",,29,
"GTCACACAATTACACTT (sugars e2 k2 d8 k2 e3, PS)",28%,,
"CGCCCTTCAGCACGCAC (sugars e2 k2 d8 k2 e3, PS)",,,"target mRNA inhibition (HepG2, 4 µM): 67%"
"GATAACAGATGAGTTAA (sugars e2 k2 d8 k2 e3, PS)",,,"target mRNA inhibition (HepG2, 4 µM): 41%"
"TGATTTAAGTCTGGCAA (sugars e2 k2 d8 k2 e3, PS)",52%,,
"AAACAGACATTTTAACTGAG (sugars e5 d10 e5, PS)",4%,,
"ATGCAGGCCTTCAGTCA (sugars e3 k2 d7 k2 e3, PS)",,37,
"CCCCGTCTCCGCGACTACTT (sugars e5 d10 e5, PS)",,,"target mRNA inhibition (HepG2, 4 µM): 16%"
"AATAAGTGCCATACAGG (sugars e2 k2 d9 k2 e2, PS)",36%,,
"ATTTAAGTCTGGCAAAATAC (sugars e5 d10 e5, PS)",16%,,
"CAAAGAAATTCTGACAAGTT (sugars e5 d10 e5, PS)",7%,,
"CCACACCATCTTTGTCAGCA (sugars e5 d10 e5, PS)",39% and 20%,,
"GCTTTTTCATGGACCAC (sugars e3 k2 d7 k2 e3, PS)",,71,
"ACAGGGTTTTTATTCAC (sugars e3 k2 d7 k2 e3, PS)",,10,
"CCTTTGGCCCACCGTGT (sugars e3 k2 d7 k2 e3, PS)",,46,
"CCGCGCCTCGCCCACTCTGG (sugars e5 d10 e5, PS)",,,"target mRNA inhibition (HepG2, 4 µM): 27%"
"GCGACTACTTTATAGGC (sugars e3 k2 d7 k2 e3, PS)",,12,
"GTTTATCAGGATACATT (sugars e2 k2 d9 k2 e2, PS)",,89,"target mRNA inhibition (HepG2, 0.1875 µM): 38%; target mRNA inhibition (HepG2, 0.75 µM): 74%; target mRNA inhibition (HepG2, 4 µM): 88%; target mRNA inhibition (HepG2, 12 µM): 95%"
"TTATTCACAGGCTTGAA (sugars e2 k2 d8 k2 e3, PS)",26%,,
"CTACATCCAAGGGAATG (sugars e3 k2 d7 k2 e3, PS)",,40,

# From the OligoGym collection
